Measurements published in patent US10724028B2, “Ligand-binding fiber and cell culture substrate using said fiber” (NISSAN CHEMICAL INDUSTRIES, LTD., priority 2014, dated 2020).

Tested on: TPO-dependent human megakaryoblastic leukemia cell line (UT-7/TPO)
Assay: Cell culture evaluation: UT-7/TPO cell number count using WST-8 after 6 days of culture on the substrate
Type: cell-based
Method: The ligand-bonded fiber 1 of Example 1 and the fiber of Comparative Example 1 were subjected to cell culture evaluation. As a control for the evaluation, a system in which PSt substrate was configured (positive control: thrombopoietin (TPO) (10 ng/mL) was added to medium, negative control: medium alone) was used. In the following, the CO2 concentration (%) of the CO2 incubator is shown by % by volume of CO2 in the atmosphere.
As the cell, TPO-dependent human megakaryoblastic leukemia cell line (UT-7/TPO; Komatsu et. al., Blood, 1996, 87, pp. 4552-4560) was used. For cell culture, IMDM (Iscove's Modified Dulbecco's Medium) medium (manufactured by Sigma-Aldrich) containing 10% (v/v) FBS and 10 ng/mL TPO (Thrombopoietin, manufactured by PeproTech) was used. The cells were cultured for not less than 2 days in a CO2 incubator at 37° C. while keeping 5% carbon dioxide concentration. The obtained culture medium was centrifuged (manufactured by TOMY SEIKO Co., Ltd., LC-200, 1500 rpm/3 min, room temperature), the supernatant was removed, the above-mentioned IMDM medium free of TPO was added to prepare a cell suspension. The “FBS” here means fetal bovine serum (manufactured by Biological Industries).
The ligand-bonded fiber of Example 1, the fiber of Comparative Example 1, and PSt substrate (for positive control and negative control) were configured in 6 well flat-bottom microplates (manufactured by AS ONE Corporation). […]
After 6 days of cell culture, the cell culture medium was recovered from respective wells in which the ligand-bonded fibers 1-3 of Examples 1-3, the fiber of Comparative Example 1, the substrate of Comparative Example 2, and PSt substrates for positive control and negative control were configured. […] After standing in a CO2 incubator at 37° C. for 120 min, the absorbance at 450 nm was measured by an absorption spectrometer (manufactured by Molecular Devices, SpectraMax). […]
After 6 days of culture, the cell number was counted in the same manner as above by using WST-8. […]

thrombopoietin [positive control]
100%: cell number (%) cell culture, first time (Table 3, UT-7/TPO, 6 days culture, positive control (TPO 10 ng/mL) as 100%) | cell number (%) cell culture, third time (Table 3, same substrate reused a third time, fresh UT-7/TPO cells, 6 days, positive control as 100%) | cell number (%) cell culture, second time (Table 3, same substrate reused after PBS wash, fresh UT-7/TPO cells, 6 days, positive control as 100%)
